Experimental findings from patent publication US5846516A, “Perfluoroalkylated amphiphilic phosphorus compounds: preparation and biomedical applications” (Alliance Pharmaceutial Corp., priority 1992, dated 1998) are described below.

Series [1] can be described thus: Surface activity of aqueous solutions: surface (γs) and interfacial (γi) tensions. The class given is physicochemical. The conditions noted are these: 20° C., ±0.3 mNm^-1. From the text:
The compounds described in this invention are very efficient surface agents, greatly lowering the surface (γs) and interfacial (γi) tensions between water and a fluorocarbon when added to water. […], γs goes from 73 (pure water) to 19.7-33.8 mNm^-1, and γi [water/perfluorodecalin (FDC) or perfluorooctyl bromide (PFOB) ] goes from 56 and 51 (in the absence of surfactant) to 5.1-8.9 mNm^-1 and 4.7-10.5 mNm^-1 respectively, as illustrated by the examples assembled in the table below. These compounds are also characterized by low values of critical micellar concentration: (CMC:from 1.10^-6 to 1.7.10^-3 M).
(§1) Surface Activity Data of Aqueous Solutions

Series [2] is described as follows: Critical micellar concentration (CMC). Conditions: aqueous solutions, 20° C. It is filed as physicochemical.
Excerpt: The compounds described in this invention are very efficient surface agents, greatly lowering the surface (γs) and interfacial (γi) tensions between water and a fluorocarbon when added to water. Thus at 1 g/L in water, γs goes from 73 (pure water) to 19.7-33.8 mNm^-1, and γi [water/perfluorodecalin (FDC) or perfluorooctyl bromide (PFOB) ] goes from 56 and 51 (in the absence of surfactant) to 5.1-8.9 mNm^-1 and 4.7-10.5 mNm^-1 respectively, as illustrated by the examples assembled in the table below. These compounds are also characterized by low values of critical micellar concentration: (CMC:from 1.10^-6 to 1.7.10^-3 M).
as §1

Series [3] in a line: Growth and viability of Namalva cell cultures. The class given is cell-based. Conditions: human; for activity: namalva cells; for viability: Namalva cells.
Series [4] can be described thus: Hemolysis of red blood cells. The conditions noted are these: human, read-out: Hemolysis, % hem. The class given is cell-based, human. As to the method: (§2) Compound 22 is non-hemolytic at a 50 g/L concentration, and its LD50 is higher than 2000 mg/kg in intravenous injection into mice. […] Furthermore, these derivatives show a higher i.v. tolerance than the single-chain compounds disclosed in WO 90/15807 C (25 ≤LD50 ≤125 mg/kg bw).
(§3) *solution added to an equal volume of a suspension, at 1% concentration o
(§4) washed red blood cells in saline.

Series [5] relates to human red blood cells. As to the kind of experiment: Hemolysis of red blood cells. The class given is cell-based. The method, then:
as §2, §3, §4

A short description of series [6]: Toxicity in mice after intravenous injection (LD50, survival). It is filed as in vivo. The conditions noted are these: mouse, in vivo; intravenous injection into mice. As to the method:
as §2

Series [7] has as its system mice. Described as above. The class given is in vivo. The conditions noted are these: for Toxicity in mice, Survival: i.v. The method, then: as §2
The nature of series [8]: Dispersibility in water at 25° C.
Series [9] is described as follows: Ageing of sonicated perfluorodecalin (FDC 50% w/v) emulsions at 40° C., average particle size. It is filed as physicochemical. Conditions: FIG. 5; 50% w/v PFD sterilized emulsions, 3% surfactant. The method, then:
(§5) The products described in this invention, used as surfactants or co-surfactants, allow the preparation and stabilization of fluorocarbon emulsions. The emulsions were prepared by sonification (BRANSON B30 sonicator) (for 50% w/v of fluorocarbon) or by high-pressure microfluidization ((MICROFLUIDICS M 110)) (for more concentrated fluorocarbon emulsions). The ageing of these emulsions at 40° C. (accelerated ageing conditions) was followed by measuring the average size of the particles by a photosedimentation method (HORIBA CAPA 500) and compared with reference emulsions prepared with natural egg-yolk lecithins or poloxamers, for example Pluronic F-68.
To prepare 12 mL of an emulsion of FDC (50% w/v) with 3% w/v of 7b, the surfactant (360 mg) was first sonicated in a rosette cell at 0° C., in 8.55 mL of water. Next, the FDC (6 g) was added and the whole is sonicated, until optimal average particle size and size distribution are obtained. The emulsion was then divided into aliquots, stocked under inert atmosphere, sterilized for 8 min at 121° C. in an autoclave, then stored at 40° C. and monitored over time.
The same process but with a mixture of surfactants composed of 120 mg of 7b and 240 mg of natural egg-yolk lecithins (EYP) gave FDC emulsion with the following average particle sizes: 0.15 μm on preparation, 0.21 μm after sterilization and 0.32 μm after 30 days at 40° C. […]

Series [10] is classed as physicochemical. Conditions: 90% w/v PFOB. As to the method:
as §5
To prepare 40 mL of a 90% w/v PFOB emulsion, surfactant 7b (400 mg) was first dispersed in 19.6 mL of a phosphate buffer with an Ultra Turrax. PFOB (36 g) was then added slowly and the whole was mixed for 10 min at 24000 revolutions/min. The resulting pre-emulsion was transferred into a microfluidizer and emulsified for 1 min at 800-1000 bar.
This emulsion was prepared as for example 28 with 200 mg of 7b and 1.4 g of EYP for 35 g of PFOB.

Where two headings read alike, the source gives them in different places.

As to `O=P(O)(OCCC(F)(F)C(F)(F)C(F)(F)C(F)(F)C(F)(F)C(F)(F)F)OC[C@H]1OC(O)[C@H](O)[C@@H](O)[C@@H]1O` (stereo partly drawn) [Compound 7a, [2-(F-hexyl)ethyl](6-D-glucosyl)(sodium)phosphate], in [1] (1 g/L in water), the “γi /FDC (interfacial tension water/perfluorodecalin)” value was 5.6 mNm^-1, the “γi /PFOB (interfacial tension water/perfluorooctyl bromide)” value came out at 4.7 mNm^-1 and the “γs (surface tension)” value was 19.7 mNm^-1. The “CMC” value in series [2] turned out to be 1.55 mM. In [3] (0.1 g/L), this compound yielded an activity of 82%. Also, in series [3] (1 g/L), the activity worked out at 51% and the viability was 97%. In addition, the hemolysis in series [4] (100 g/L, solution added to an equal volume of 1% washed red blood cells in saline) came out at 0%. The “hemolytic activity (in words)” value in [5] (even at 100 g/L) is on record as “no hemolytic activity”. The same compound displayed a median lethal dose (LD50) in series [6] of around 750 mg/kg. Moreover, in series [7] (dose 750 (mg/kg)), the “Toxicity in mice, Survival” value is recorded as 4/10. In series [8], this compound showed a solubility of 350 mg/mL.

On to `O=P(O)(OCCC(F)(F)C(F)(F)C(F)(F)C(F)(F)C(F)(F)C(F)(F)C(F)(F)C(F)(F)F)OC[C@H]1OC(O)[C@H](O)[C@@H](O)[C@@H]1O` (stereo partly drawn) [Compound 7b, [2-(F-octyl)ethyl](6-D-glucosyl)(sodium)phosphate], for which, in [3] (1 g/L), the activity came to 76% and the viability was found to be 104%. Also, the hemolysis in [4] (30 g/L, dispersed in a 20 g/L Pluronic F68 solution, added to an equal volume of 1% washed red blood cells in saline) was 0%. Further, the “hemolytic effect (in words)” value in series [5] (dispersion at 30 g/L in 20 g/L Pluronic F-68) is on record as “no hemolytic effect”. Besides, the “Toxicity in mice, Survival” value in series [7] (dose 125 (mg/kg)) is 10/10. In addition, the “ageing at 40° C. of perfluorodecalin emulsions (in words)” value in series [9] was “superimposable”. The “stability of PFOB emulsion vs. EYP emulsion (in words)” value in [10] (FIG. 6, 1% w/v 7b vs 4% EYP, 40° C.) is “more stable than an emulsion containing 4% of EYP”. Also, the “co-surfactant effect with EYP on particle size and stabilization (in words)” value in series [10] (FIG. 7, 1/8th of 4% EYP replaced by 7b) is “significantly reduces the average particle size and causes strong stabilization”.

Turning to `O=P(O)(OCCC(F)(F)C(F)(F)C(F)(F)C(F)(F)C(F)(F)C(F)(F)C(F)(F)C(F)(F)F)O[C@H]1[C@H](O)[C@@H](CO)OC(O)[C@@H]1O` (stereo partly drawn) [Compound 8b, [2-(F-octyl)ethyl] (3-D-glucosyl)(sodium) phosphate], in [1] (1 g/L in water), the “γi /FDC (interfacial tension water/perfluorodecalin)” value was 5.6 mNm^-1, the “γi /PFOB (interfacial tension water/perfluorooctyl bromide)” value is 8.3 mNm^-1 and the “γs (surface tension)” value came out at 27.5 mNm^-1. Further, the “CMC” value in series [2] was 1.68 mM. Moreover, the “ageing at 40° C. of perfluorodecalin emulsions (in words)” value in series [9] was “superimposable”. This compound yielded a solubility in [8] of 250 mg/mL.

For the compound “[2-(F-octyl)ethyl] bis [polyethylene glycol methyl ether] phosphate triester 20, n=7 [Compound 20]”, the “Dispersibility at 25° C., g/L in water” value is above 100 g/L. Further, in series [1] (0.1 g/L (0.083 mM) in water), the “γi /FDC (interfacial tension water/perfluorodecalin)” value is given as 13.1 mNm^-1, the “γi /PFOB (interfacial tension water/perfluorooctyl bromide)” value is listed as 9.2 mNm^-1 and the “γs (surface tension)” value stood at 33.8 mNm^-1. Also, the “CMC” value in [2] is reported as 0.025 mM.

In the case of “[5-(F-octyl)pentyl] bis [polyethylene glycol methyl ether] phosphate triester 21, n=7 [Compound 21]”, the “Dispersibility at 25° C., g/L in water” value is listed as above 100 g/L. Also, in series [1] (0.01 g/L (0.008 mM) in water), the “γi /FDC (interfacial tension water/perfluorodecalin)” value is on record as 9.6 mNm^-1, the “γi /PFOB (interfacial tension water/perfluorooctyl bromide)” value is recorded as 7.5 mNm^-1 and the “γs (surface tension)” value worked out at 29.6 mNm^-1. The “CMC” value in [2] was found to be 0.001 mM. Moreover, in series [7] (dose 500 (mg/kg)), the “Toxicity in mice, Survival” value is on record as 10/10. Also, in series [7] (dose 1000 (mg/kg)), the “Toxicity in mice, Survival” value is reported as 3/10.

As to “[5-(F-octyl)pentyl] bis [polyethylene glycol methyl ether] phosphate triester 22, n=16 [Compound 22]”, the “hemolytic activity (in words)” value in series [5] (50 g/L) is recorded as “non-hemolytic”. The “Toxicity in mice, Survival” value in series [7] (dose 2000 (mg/kg)) is listed as 10/10. Besides, the median lethal dose (LD50) entry in series [7] (intravenous injection into mice) is “higher than 2000 mg/kg”. Besides, in series [7] (intravenous, mice), the “in vivo (i.v.) tolerance (in words)” value is reported as “in vivo tolerance increases from 21 to 22”.

In general, viability refers to a read-out of living cells in per cent, often relative to untreated cells. By LD50 is commonly meant the dose at which mortality reaches 50%. A higher LD50 goes with lower toxicity. For orientation: solubility means the concentration that dissolves in the medium under given conditions.
